From patent US20180251431A1 (VERTEX PHARMACEUTICALS INCORPORATED, priority 2016, published 2018)

Tested on: HEK293 cells
Experiment: HEK293 VLCFA-LPC IC50 determination (13C-labeled C26:0 LPC by UHPLC/MS)
Assay type: cell-based, human
Settings: Homo sapiens, HEK293, 48 h, average of one or more replicates; 13C-labeled C26:0 LPC, 48 hours; read-out: Average HEK293 IC50
Method in brief: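 Suspension HEK293 cells (final 0.5 million/mL after mixing with equal volume) incubated 48 hours with compound plus 13C-acetate (1.0 mg/mL in added media), shaking at 37° C. Lipids extracted with hexane/isopropanol or methanol, C13:0 LPC standard. UHPLC/MS of 13C-labeled C26:0 LPC (638.500/104.100 m/z); IC50 by four-parameter fit.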

Structure (SMILES) | IC50
O=C(Nc1ccn(-c2cncc(F)c2)n1)[C@@]1(c2ncccc2F)CC12CC2 (single isomer, unassigned) [Compound 500] | 0.43 µM
Nc1cc(-n2ccc(NC(=O)C3(c4ccccc4F)CC3)n2)ccc1F [Compound 385, N-[1-(3-amino-4-fluoro-phenyl)pyrazol-3-yl]-1-(2-fluorophenyl)cyclopropanecarboxamide] | 1.4 µM
Cc1cc(-n2ccc(NC(=O)C3(c4ccccc4F)CC3)n2)nc(C)n1 [Compound 337, N-[1-(2,6-dimethylpyrimidin-4-yl)pyrazol-3-yl]-1-(2-fluorophenyl)cyclopropanecarboxamide] | > 5 µM
O=C(Nc1ccn(-c2cncc(Cl)c2)n1)C1(c2ccccc2F)CC1 [Compound 325, N-[1-(5-chloro-3-pyridyl)pyrazol-3-yl]-1-(2-fluorophenyl)cyclopropanecarboxamide] | 0.073 µM
COc1cc(-n2ccc(NC(=O)C3(c4ccccc4F)CC3)n2)ncn1 [Compound 358, 1-(2-fluorophenyl)-N-(1-(6-methoxypyrimidin-4-yl)-1H-pyrazol-3-yl)cyclopropane-1-carboxamide] | > 5 µM
Cc1cc(-n2ccc(NC(=O)C3(c4ccccc4F)CC3)n2)cnc1F [Compound 376, N-[1-(6-fluoro-5-methyl-3-pyridyl)pyrazol-3-yl]-1-(2-fluorophenyl)cyclopropanecarboxamide] | 0.065 µM
COc1cc(-n2ccc(NC(=O)C3(c4ccccc4F)CC3)n2)cnn1 [Compound 447, 1-(2-fluorophenyl)-N-[1-(6-methoxypyridazin-4-yl)pyrazol-3-yl]cyclopropanecarboxamide] | > 5 µM

Same assay, conditions: Homo sapiens, HEK293, HEK293 cells; average of one or more replicates; read-out: Average HEK293 IC50

Structure (SMILES) | IC50
O=C(Nc1ccn(-c2ccc(F)cc2)n1)C1(c2ncccc2F)CC12CC2 (stereo not shown) [Compound 521, N-[1-(4-fluorophenyl)pyrazol-3-yl]-2-(3-fluoro-2-pyridyl)spiro[2.2]pentane-2-carboxamide] | 2.3 µM
O=C(Nc1ccn(-c2ccncc2)n1)C1(c2ccccc2)CC1 [Compound 100, 1-phenyl-N-[1-(4-pyridyl)pyrazol-3-yl]cyclopropanecarboxamide] | 0.033 µM
O=C(Cc1ccccc1)Nc1ccn(-c2ccc(C(F)(F)F)cc2)n1 [Compound 153, 2-phenyl-N-[1-[4-(trifluoromethyl)phenyl]pyrazol-3-yl]acetamide] | > 5 µM
O=C(Nc1ccn(-c2ccccc2)n1)C1(c2cccc(F)c2F)CC1 [Compound 269, 1-(2,3-difluorophenyl)-N-(1-phenylpyrazol-3-yl)cyclopropanecarboxamide] | 0.098 µM
O=C(Nc1ccn(-c2ccc(F)c(F)c2)n1)C1(c2ccccc2F)CC1 [Compound 190, N-[1-(3,4-difluorophenyl)pyrazol-3-yl]-1-(2-fluorophenyl)cyclopropanecarboxamide] | 0.15 µM
COc1cc(-n2ccc(NC(=O)C3(c4cccs4)CC3)n2)ccn1 [Compound 478, N-[1-(2-methoxy-4-pyridyl)pyrazol-3-yl]-1-(2-thienyl)cyclopropanecarboxamide] | 0.12 µM
O=C(Nc1cc(F)n(-c2cncc(F)c2)n1)C1(c2ncccc2F)CC1 [Compound 462, N-[5-fluoro-1-(5-fluoro-3-pyridyl)pyrazol-3-yl]-1-(3-fluoro-2-pyridyl)cyclopropanecarboxamide] | > 5 µM
Cc1nc(C)c(-n2ccc(NC(=O)C3(c4ccccc4F)CC3)n2)s1 [Compound 413, N-[1-(2,4-dimethylthiazol-5-yl)pyrazol-3-yl]-1-(2-fluorophenyl)cyclopropanecarboxamide] | > 5 µM
CC1(C)CC1(C(=O)Nc1ccn(-c2ccccc2)n1)c1ccccc1F (stereo not shown) [Compound 135, 1-(2-fluorophenyl)-2,2-dimethyl-N-(1-phenylpyrazol-3-yl)cyclopropanecarboxamide] | 0.68 µM
O=C(Nc1ccn(-c2ccnc(Cl)c2)n1)C1(c2ccccc2)CC1 [Compound 84, N-(1-(2-chloropyridin-4-yl)-1H-pyrazol-3-yl)-1-phenylcyclopropane-1-carboxamide] | 0.061 µM
CC1CC1(C(=O)Nc1ccn(-c2cncc(Cl)c2)n1)c1ncccc1F (stereo not shown) [Compound 504, N-[1-(5-chloro-3-pyridyl)pyrazol-3-yl]-1-(3-fluoro-2-pyridyl)-2-methyl-cyclopropanecarboxamide] | 0.12 µM
CC(C)(C(=O)Nc1ccn(-c2ccccc2)n1)c1ccccc1 [Compound 30, 2-methyl-2-phenyl-N-(1-phenyl-1H-pyrazol-3-yl)propanamide] | 0.32 µM
O=C(Nc1ccn(-c2ccncc2)n1)C1(c2ccccc2F)CC1 [Compound 101, 1-(2-fluorophenyl)-N-[1-(4-pyridyl)pyrazol-3-yl]cyclopropanecarboxamide] | 0.075 µM
O=C(Nc1ccn(-c2ccc(Cl)nc2)n1)C1(c2ccccc2)CC1 [Compound 106, N-[1-(6-chloro-3-pyridyl)pyrazol-3-yl]-1-phenyl-cyclopropanecarboxamide] | 0.25 µM
Cc1cc(F)ccc1-n1ccc(NC(=O)C2(c3ncccc3F)CC2)n1 [Compound 450, N-(1-(4-fluoro-2-methylphenyl)-1H-pyrazol-3-yl)-1-(3-fluoropyridin-2-yl)cyclopropane-1-carboxamide] | > 5 µM
Cc1cc(C)cc(C2(C(=O)Nc3ccn(-c4ccnc(F)c4)n3)CC2)c1 [Compound 248, 1-(3,5-dimethylphenyl)-N-[1-(2-fIuoro-4-pyridyl)pyrazol-3-yl]cyclopropanecarboxamide] | > 5 µM
O=C(Cc1ccon1)Nc1ccn(-c2ccnc(F)c2)n1 [Compound 304, N-[1-(2-fluoro-4-pyridyl)pyrazol-3-yl]-2-isoxazol-3-yl-acetamide] | > 5 µM
O=C(Nc1ccn(-c2cc(F)cc(F)c2)n1)C1(c2cccs2)CC1 [Compound 480, N-[1-(3,5-difluorophenyl)pyrazol-3-yl]-1-(2-thienyl)cyclopropanecarboxamide] | 0.23 µM

Structure (SMILES) | IC50
O=C(Nc1ccn(-c2ccccc2)n1)C1(c2ccccc2)CC1(F)F (racemic) [Compound 143, 2,2-difluoro-1-phenyl-N-(1-phenyl-1H-pyrazol-3-yl)cyclopropane-1-carboxamide] | 0.14 µM
Cc1cnc(C2(C(=O)Nc3ccn(-c4cncc(F)c4)n3)CC2)c(F)c1 [Compound 497, 1-(3-fluoro-5-methyl-2-pyridyl)-N-[1-(5-fluoro-3-pyridyl)pyrazol-3-yl]cyclopropanecarboxamide] | 2.1 µM
O=C(Nc1ccn(-c2ccccn2)n1)C1(c2ccccc2F)CC1 [Compound 210, 1-(2-fluorophenyl)-N-[1-(2-pyridyl)pyrazol-3-yl]cyclopropanecarboxamide] | 0.17 µM
Cc1ccc(F)c(C2(C(=O)Nc3ccn(-c4ccnc(F)c4)n3)CC2)c1Cl [Compound 272, 1-(2-chloro-6-fluoro-3-methyl-phenyl)-N-[1-(2-fluoro-4-pyridyl)pyrazol-3-yl]cyclopropanecarboxamide] | 0.46 µM
O=C(Nc1ccn(-c2ccc(F)c(Cl)c2)n1)C1(c2ccccc2)CC1 [Compound 200, N-[1-(3-chloro-4-fluoro-phenyl)pyrazol-3-yl]-1-phenyl-cyclopropanecarboxamide] | 0.7 µM
O=C(Cc1ccccc1)Nc1ccn(-c2ccccc2)n1 [Compound 41, 2-phenyl-N-(1-phenylpyrazol-3-yl)acetamide] | 0.073 µM
O=C(Nc1ccn(-c2cccc(Cl)c2)n1)C1(c2ccccc2)CC1(F)F (racemic) [Compound 421, N-(1-(3-chlorophenyl)-1H-pyrazol-3-yl)-2,2-difluoro-1-phenylcyclopropane-1-carboxamide] | 0.47 µM
CCOc1ccc(C2(C(=O)Nc3ccn(-c4ccccc4)n3)CC2)cc1 [Compound 33, 1-(4-ethoxyphenyl)-N-(1-phenylpyrazol-3-yl)cyclopropanecarboxamide] | 0.99 µM
O=C(Cc1ccccn1)Nc1ccn(-c2ccccc2)n1 [Compound 40, N-(1-phenylpyrazol-3-yl)-2-(2-pyridyl)acetamide] | 1.5 µM
O=C(Nc1ccn(-c2cncc(F)c2)n1)C1(c2ccccc2F)CC1 [Compound 180, 1-(2-fluorophenyl)-N-[1-(5-fluoro-3-pyridyl)pyrazol-3-yl]cyclopropanecarboxamide] | 0.02 µM
O=C(Cc1ccccc1F)Nc1ccn(-c2cccc(Cl)c2)n1 [Compound 130, N-[1-(3-chlorophenyl)pyrazol-3-yl]-2-(2-fluorophenyl)acetamide] | 1.5 µM
O=C(Nc1ccn(-c2ccnc(F)c2)n1)C1(c2ccc(F)cc2)CC1 [Compound 255, 1-(4-fluorophenyl)-N-[1-(2-fluoro-4-pyridyl)pyrazol-3-yl]cyclopropanecarboxamide] | 0.1 µM
O=C(Nc1ccn(-c2ccncc2)n1)C1(c2ncccn2)CC1 [Compound 536, N-[1-(4-pyridyl)pyrazol-3-yl]-1-pyrimidin-2-yl-cyclopropanecarboxamide] | > 5 µM
O=C(Cc1ccc(F)c(F)c1)Nc1ccn(-c2ccccc2)n1 [Compound 57, 2-(3,4-difluorophenyl)-N-(1-phenylpyrazol-3-yl)acetamide] | > 5 µM
CC1CC1(C(=O)Nc1ccn(-c2cc(F)cc(F)c2)n1)c1ncccc1F (stereo not shown) [Compound 508, N-[1-(3,5-difluorophenyl)pyrazol-3-yl]-1-(3-fluoro-2-pyridyl)-2-methyl-cyclopropanecarboxamide] | 0.071 µM
O=C(Nc1ccn(-c2ccnc(F)c2)n1)C1(c2ccc(Cl)cc2F)CC1 [Compound 262, 1-(4-chloro-2-fluoro-phenyl)-N-[1-(2-fluoro-4-pyridyl)pyrazol-3-yl]cyclopropanecarboxamide] | 0.3 µM
O=C(Nc1ccn(-c2ccccc2)n1)C1(c2cccc(F)c2)CC1 [Compound 21, 1-(3-fluorophenyl)-N-(1-phenylpyrazol-3-yl)cyclopropanecarboxamide] | 0.15 µM
O=C(Cc1ccccc1F)Nc1ccn(-c2ccncc2)n1 [Compound 14, 2-(2-fluorophenyl)-N-[1-(4-pyridyl)pyrazol-3-yl]acetamide] | 0.58 µM
